Values of other authors, collected in patent US8644910B2, “Imaging protocols” (Biosensors International Group, Ltd., priority 2005, dated 2014).
Like-named read-outs stand apart in the source and are kept apart here. Blank lines part the entries; values can stand above or below the compound they belong to.

Assays:
[1] = administration to lactating women
[2] = 600 MBq, common bone scan
[3] = not given; remark: listed apart in the source
[4] = stored at 15-25° C. before and after reconstitution
[5] = prepared product

breast feeding interruption advised [1]: Complete cessation
Compound: O=C([O-])CC(O)(CC(=O)[O-])C(=O)[O-].[Ga+3] [^67Ga-citrate, Gallium Citrate]

effective dose [2]: 3 mSv
Compound: O=P(O)(O)CP(=O)(O)O [^99mTc-MDP, medronate, metal not drawn]

Compound: [99Tc].[C-]#[N+]CC(C)(C)OC.[C-]#[N+]CC(C)(C)OC.[C-]#[N+]CC(C)(C)OC.[C-]#[N+]CC(C)(C)OC.[C-]#[N+]CC(C)(C)OC.[C-]#[N+]CC(C)(C)OC [^99mTc-Sestamibi, technetium-99m-methoxyisobutylisonitrile]
Myocardial uptake (at exercise): 1.5 % of the injected dose
Myocardial uptake (at rest): 1.2 % of the injected dose
cleared through the feces ([3]; in 48 hours): approximately thirty-three
excreted in the urine ([3]; in vivo): Twenty-seven
major pathway for clearance ([3]; in vivo): hepatobiliary system
metabolism ([3]; in vivo): excreted without any evidence of metabolism
time for use after preparation [4]: ≤ 6 h

Compound: [Na+].[O]=[Tc](=[O])(=[O])[O-] [^99mTc-pertechnetate, Sodium pertechnetate]
breast feeding interruption advised [1]: brief interruption (hours to days)

breast feeding interruption advised [1]: brief interruption (hours to days)
Compound: N=C(N)NCc1cccc([131I])c1 [^123I-metaiodobenzylguanidine, metaiodobenzylguanidine]

Compound: [I-].[Na+] [^123I-sodium iodide, sodium iodide]
breast feeding interruption advised [1]: Complete cessation

Compound: [Cl][201Tl] [^201Tl, Tl-201-thallous chloride]
breast feeding interruption advised [1]: brief interruption (hours to days)

Compound: Technetium Tc 99m Arcitumomab (CEA-Scan)
shelf life [5]: ≤ 4 h
